The values below are quoted from earlier work in patent US6486186B2, “Thiazole compounds as cyclic AMP-specific phosphodiesterase inhibitors and method of using the same” (ICOS Corporation, priority 1999, dated 2002).

pIC50: −log10 of the molar value.

For orientation: pIC50 means the negative decadic logarithm of the IC50, by convention in mol/L.

One data set relates to recombinant human PDE4. The settings on record: literature value; read-out: reported IC50 with respect to inhibiting recombinant human PDE4.
For data set [1] the following is noted: in vivo.

As to `COC(=O)N1CC(c2ccc(OC)c(OC3CCCC3)c2)C(C)(C(C)=O)C1` (stereo not drawn) [structural formula (I)], in the data set with recombinant human PDE4, the pIC50 is ~8.70. For the compound `COc1ccc([C@@H]2CNC(=O)C2)cc1OC1CCCC1` (single isomer, unassigned) [(−)-enantiomer of rolipram], the “emetic potential relative to the (+)-enantiomer (S-rolipram)” value in data set [1] is given as “about ten-fold more emetic”. On to `COc1ccc(C2CNC(=O)C2)cc1OC1CCCC1` (stereo not drawn) [Rolipram], for which the pIC50 in the data set with recombinant human PDE4 was ~6.70.
